Test results reported in patent US20130165368A1, “ANTIMICROBIAL COMPOUNDS” (priority 2010, published 2013).
Converted amounts (≈) assume the structure as drawn. Like-named read-outs stand apart in the source and are kept apart here.

Tests used:
Type in all cases: cell-based
Candida albicans = assay: MIC agar dilution, micro-organism 19 (90028); conditions: Candida albicans 90028, read-out: MIC
Summary of the method: (§1)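 Agar dilution in Isosensitest/CCEY agar with egg yolk and lysed horse blood; compounds as aqueous emulsions (myristyl and lauryl alcohol with 1-methyl-2-pyrrolidone and Tween 20). 1 µL spots of 1/15-diluted 0.5 McFarland suspensions, 37 °C aerobic, read at 22 and 48 h; MIC (mmol/L) is lowest concentration giving <10 colonies.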

MRSA FIN 54511 (E6) = assay: MIC agar dilution, MRSA strain 32; conditions: Staphylococcus aureus
Description: (§2) Molar equivalent concentrations were used to allow comparison between compounds of differing molecular mass. Due to weighing difficulties, any compound in solid form was melted in a water bath prior to dilution. To make ten-times strength concentrations, which takes into account agar dilution, 0.0352 mmol of each compound was weighed into plastic universal bottles and 4 mL of sterile distilled water (SDW) was added. To produce a homogenous emulsion the universals were vortexed; once achieved the emulsions were serial diluted by adding 2 mL to 2 mL of SDW.
(§3) For every 100 mL of Isosensitest agar (IST) (CM0471; Oxoid, Basingstoke, England), 3.1 g of the IST powder was added to 100 mL SDW (as per manufacturer's instructions) and sterilised for 15 minutes at 121° C. Once sterilised, the molten agar was cooled to 50° C. in a water-bath. Subsequently 4.8 g of CCEY powder (BC2160; Bioconnections, Wetherby, England), also known as Brazier's medium, was added to 100 mL SDW for every 100 mL of agar needed. This was then sterilised for 15 minutes at 121° C. Once sterilised the molten agar was cooled to 50° C. in a water-bath and 4 mL of egg-yolk emulsion (S2073; TCS Biosciences Ltd, Buckingham, United Kingdom) and 1 mL of lysed defibrinated horse blood (HB035; TCS Biosciences Ltd, Buckingham, United Kingdom) were also added for every 100 mL needed. Horse blood lysis is achieved by dilution to half concentration with SDW; when fully lysed the mixture will turn dark red in colour.
(§4) 18 mL agar was added to each universal and then poured into sterile Petri dishes. This step creates a 1/10 dilution resulting in agar plates of the required strength. Control plates for each set of strains were created by adding 18 mL of agar to 2 mL of SDW.
(§5) Suspensions of each bacterial species were prepared with a density equal to that of a 0.5 McFarland standard using a densitometer. All suspensions were made using sterile distilled water and fresh 18-20 hour cultures. As a 0.5 McFarland standard contains 1.5×10^8 CFU/mL and the multipoint inoculators applies 1 μL spots of liquid, each bacterial suspension was diluted 1/15 (20 μL suspension to 280 μL sterile distilled water).
(§6) Bacterial suspensions were prepared from fresh 18-24 hour cultures as previously described. 1 μL of each strain was inoculated onto all 100 agar plates containing a different chemical concentration and the 2 control plates. This was done using a multipoint inoculator which inoculates 20 strains per plate. All plates were incubated for 22 hours at 37° C. in aerobic conditions.
(§7) Each plate was examined for bacterial growth after 22 and 48 hours, with each being incubated in between examinations. A positive result was recorded as growth of ≧10 colonies. A negative result was recorded as growth of <10 colonies as this is equivalent to 99.9% inhibition. The lowest concentration of chemical that inhibited growth was recorded as the MIC. The results are recorded in Table IV below, where the numbers are quoted in mmol/L.
(§8) Given the positive performance of the ethoxylates of lauryl alcohol in reducing the MIC for a number of the micro-organisms tested, further MIC testing of Laureth-1 [C12E1] through to Laureth-8 [C12E8] was conducted on each of the following: • 10 strains of vancomycin-resistant enterococci (VRE)—listed in Table V below; and • 20 strains of methicillin-resistant Staphylococcus aureus (MRSA)—listed in Table VI.
(§9) The alkanol, alkanol derivatives, agar plates, and inocula were all prepared in the same way as described above.
(§10) The plates were examined in the same manner as described above and the results are recorded in Table VII below, where the numbers are quoted in mmol/L.

MRSA NCTC 11939 = assay: MIC agar dilution, MRSA strain 50; conditions: Staphylococcus aureus, MRSA strain 50 NCTC 11939
Description: as §2, §3, §4, §5, §6, §7, §8, §9, §10

Enterococcus faecium = assay: MIC agar dilution, micro-organism 16 (7171); conditions: Enterococcus faecium 7171, read-out: MIC
Summary of the method: as §1

MRSA FIN 54518 (E7) = assay: MIC agar dilution, MRSA strain 31; conditions: Staphylococcus aureus
Description: as §2, §3, §4, §5, §6, §7, §8, §9, §10

Bacillus subtilis = assay: MIC agar dilution, micro-organism 18 (9372); conditions: Bacillus subtilis 9372, read-out: MIC
Summary of the method: as §1

[1] = test system: MRSA GER 1966/97 (Hanover IIIc); assay: MIC agar dilution, MRSA strain 36; conditions: Staphylococcus aureus
Description: as §2, §3, §4, §5, §6, §7, §8, §9, §10

Escherichia coli = assay: MIC agar dilution, micro-organism 1 (10418); conditions: Escherichia coli 10418, read-out: MIC
Summary of the method: as §1

Enterococcus faecalis = assay: MIC agar dilution, micro-organism 17 (775); conditions: Enterococcus faecalis 775, read-out: MIC
Summary of the method: as §1

Providencia rettgeri = assay: MIC agar dilution, micro-organism 3 (7475); conditions: Providencia rettgeri 7475, read-out: MIC
Summary of the method: as §1

MRSA FRA 95035 = assay: MIC agar dilution, MRSA strain 37; conditions: Staphylococcus aureus
Description: as §2, §3, §4, §5, §6, §7, §8, §9, §10

[2] = test system: Enterococcus faecium (VRE) MB 305; assay: MIC agar dilution, VRE strain 25
Description: as §2, §3, §4, §5, §6, §7, §8, §9, §10

[3] = test system: Enterococcus faecium (VRE) MB310; assay: MIC agar dilution, VRE strain 29
Description: as §2, §3, §4, §5, §6, §7, §8, §9, §10

SMILES: CCCCCCCCCCCCOCCO [L1, Ethylene Glycol Monododecyl Ether]
- MIC (Candida albicans; 22 hrs): 440 µM (≈ 101 µg/mL)
- MIC (Candida albicans; 48 hrs): 440 µM (≈ 101 µg/mL)
- MIC (MRSA FIN 54511 (E6); 22 hrs): 220 µM (≈ 50.7 µg/mL)
- MIC (MRSA FIN 54511 (E6); 48 hrs): 220 µM (≈ 50.7 µg/mL)
- MIC (MRSA NCTC 11939; 22 hrs): 220 µM (≈ 50.7 µg/mL)
- MIC (MRSA NCTC 11939; 48 hrs): 220 µM (≈ 50.7 µg/mL)
- MIC (Enterococcus faecium; 22 hrs): > 880 µM
- MIC (Enterococcus faecium; 48 hrs): > 880 µM
- MIC (MRSA FIN 54518 (E7); 22 hrs): 220 µM (≈ 50.7 µg/mL)
- MIC (MRSA FIN 54518 (E7); 48 hrs): 440 µM (≈ 101 µg/mL)
- MIC (Bacillus subtilis; 22 hrs): 440 µM (≈ 101 µg/mL)
- MIC (Bacillus subtilis; 48 hrs): 440 µM (≈ 101 µg/mL)
- MIC ([1]; 22 hrs): 220 µM (≈ 50.7 µg/mL)
- MIC ([1]; 48 hrs): 220 µM (≈ 50.7 µg/mL)
- MIC (Escherichia coli; 22 hrs): 220 µM (≈ 50.7 µg/mL)
- MIC (Escherichia coli; 48 hrs): 220 µM (≈ 50.7 µg/mL)
- MIC (Enterococcus faecalis; 22 hrs): 440 µM (≈ 101 µg/mL)
- MIC (Enterococcus faecalis; 48 hrs): 440 µM (≈ 101 µg/mL)
- MIC (Providencia rettgeri; 22 hrs): > 880 µM
- MIC (Providencia rettgeri; 48 hrs): > 880 µM
- MIC (MRSA FRA 95035; 22 hrs): 220 µM (≈ 50.7 µg/mL)
- MIC (MRSA FRA 95035; 48 hrs): 220 µM (≈ 50.7 µg/mL)
- MIC ([2]; 22 hrs): 440 µM (≈ 101 µg/mL)
- MIC ([2]; 48 hrs): 880 µM (≈ 203 µg/mL)
- MIC ([3]; 22 hrs): 440 µM (≈ 101 µg/mL)
- MIC ([3]; 48 hrs): 440 µM (≈ 101 µg/mL)

SMILES: CCCCCCCCCCCCOCCOCCOCCOCCO [L4, Tetraethylene Glycol Monododecyl Ether]
- MIC (Candida albicans; 22 hrs): 440 µM (≈ 160 µg/mL)
- MIC (Candida albicans; 48 hrs): 220 µM (≈ 79.8 µg/mL)
- MIC (MRSA FIN 54511 (E6); 22 hrs): 110 µM (≈ 39.9 µg/mL)
- MIC (MRSA FIN 54511 (E6); 48 hrs): 110 µM (≈ 39.9 µg/mL)
- MIC (MRSA NCTC 11939; 22 hrs): 55 µM (≈ 19.9 µg/mL)
- MIC (MRSA NCTC 11939; 48 hrs): 55 µM (≈ 19.9 µg/mL)
- MIC (Enterococcus faecium; 22 hrs): 220 µM (≈ 79.8 µg/mL)
- MIC (Enterococcus faecium; 48 hrs): 220 µM (≈ 79.8 µg/mL)
- MIC (MRSA FIN 54518 (E7); 22 hrs): 220 µM (≈ 79.8 µg/mL)
- MIC (MRSA FIN 54518 (E7); 48 hrs): 440 µM (≈ 160 µg/mL)
- MIC (Bacillus subtilis; 22 hrs): 110 µM (≈ 39.9 µg/mL)
- MIC (Bacillus subtilis; 48 hrs): 110 µM (≈ 39.9 µg/mL)
- MIC ([1]; 22 hrs): 55 µM (≈ 19.9 µg/mL)
- MIC ([1]; 48 hrs): 55 µM (≈ 19.9 µg/mL)
- MIC (Escherichia coli; 22 hrs): > 880 µM
- MIC (Escherichia coli; 48 hrs): > 880 µM
- MIC (Enterococcus faecalis; 22 hrs): 110 µM (≈ 39.9 µg/mL)
- MIC (Enterococcus faecalis; 48 hrs): 110 µM (≈ 39.9 µg/mL)
- MIC (Providencia rettgeri; 22 hrs): > 880 µM
- MIC (Providencia rettgeri; 48 hrs): > 880 µM
- MIC (MRSA FRA 95035; 22 hrs): 55 µM (≈ 19.9 µg/mL)
- MIC (MRSA FRA 95035; 48 hrs): 55 µM (≈ 19.9 µg/mL)
- MIC ([2]; 22 hrs): 110 µM (≈ 39.9 µg/mL)
- MIC ([2]; 48 hrs): 110 µM (≈ 39.9 µg/mL)
- MIC ([3]; 22 hrs): 110 µM (≈ 39.9 µg/mL)
- MIC ([3]; 48 hrs): 110 µM (≈ 39.9 µg/mL)
